In patent publication US8895558B2, “Arylpiperazine-containing pyrrole 3-carboxamide derivatives for treating depressive disorders” (Green Cross Corporation, priority 2008, dated 2014) one finds IC50 data, which are given here for 19 compounds.

The target in assay [1] is T1, human recombinant serotonin 5-HT2A receptor (Homo sapiens, UniProt P28223).
T1 construct: purchased PerkinElmer Life and Analytical Sciences, USA; host or cells: CHO-K1
The assay is described as follows: Binding affinity for serotonin 5-HT2A receptor ([3H]Ketanserin). Particulars: CHO-K1 expressed receptor, 1 nM [3H]Ketanserin. Here is the method: Receptor binding affinities of the compounds for serotonin receptors were measured by the method described in the literature [Park W K et al., Pharmacol Biochem Behav. 2005, 82(2), 361-372].
For serotonin 5-HT2A binding, an aliquot of human recombinant serotonin 5-HT2A receptor (PerkinElmer Life and Analytical Sciences, USA) expressed in CHO-K1 cells (5 ug/well) and 1 nM [^3H]Ketanserin (PerkinElmer) were used in the presence of mianserin (20 uM) as nonspecific. The reaction mixture was incubated for 60 min at 27 using 50 mM Tris-HCl (pH 7.4) buffer containing 4 mM CaCl2 and 0.1% ascorbic acid, and harvested through filtermate A glass fiber filter (Wallac, Finland) presoaked in 0.5% polyethyleneimine (PEI) by microbeta filtermate-96 harvester (PerkinElmer) to terminate the reaction, and then washed with ice cold 50 mM Tris-HCl buffer solution (pH 7.4). The filter was then covered with MeltiLex, sealed in a sample bag, dried in an oven. The radioactivity retained in the filter was finally counted using MicroBeta Plus (Wallac).
(§1) The binding affinity (IC50) of a compound for the receptor was calculated by computerized nonlinear regression analysis (GraphPad Prism Program, San Diego, USA) using 7-8 varied concentrations of the compound run in duplicate tubes.

Assay [2] deals with T2, human recombinant 5-HT2C receptor (Homo sapiens, UniProt P28335).
T2 construct: purchased PerkinElmer
T2 sequence (P28335 33-458): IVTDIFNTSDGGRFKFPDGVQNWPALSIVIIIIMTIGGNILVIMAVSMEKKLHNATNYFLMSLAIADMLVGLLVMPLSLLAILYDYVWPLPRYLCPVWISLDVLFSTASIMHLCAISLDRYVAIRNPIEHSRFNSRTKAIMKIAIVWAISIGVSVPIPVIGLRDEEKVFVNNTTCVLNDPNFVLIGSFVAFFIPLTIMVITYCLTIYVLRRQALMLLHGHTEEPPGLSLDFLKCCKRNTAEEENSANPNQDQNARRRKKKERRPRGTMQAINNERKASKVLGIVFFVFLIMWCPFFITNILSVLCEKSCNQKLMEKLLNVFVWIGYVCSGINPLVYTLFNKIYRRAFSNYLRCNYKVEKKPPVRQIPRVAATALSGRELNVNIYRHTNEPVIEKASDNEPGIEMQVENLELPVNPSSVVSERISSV
The assay is described as follows: Binding affinity for serotonin 5-HT2C receptor ([3H]Mesulergine). To be noted: CHO-K1 membranes, 1.3 nM [3H]Mesulergine. On the procedure: Receptor binding affinities of the compounds for serotonin receptors were measured by the method described in the literature [Park W K et al., Pharmacol Biochem Behav.
as §1
Nonspecific binding was determined using 100 uM mianserin. The incubations were performed for 60 min at 27, and these were terminated by rapid filtration through filtermate. A glass fiber filter presoaked in 0.5% PEI.

The target in assay [3] is T3, human serotonin transporter (Homo sapiens, UniProt P31645).
T3 construct: purchased PerkinElmer; host or cells: HEK-293
The assay is described as follows: Binding affinity for serotonin transporter ([3H]Imipramine). Particulars: HEK-293 membranes, 2 nM [3H]Imipramine. On the procedure: For serotonin transporter binding assays, a reaction mixture with a final volume of 0.25 ml was prepared by mixing a test compound, human serotonin transporter membrane expressed in HEK-293 cells (PerkinElmer, 5 ug/well), [^3H]Imipramine (PerkinElmer, 2 nM) and 50 mM Tris-HCl (pH 7.4) buffer containing 120 mM NaCl and 5 mM KCl. The reaction mixture was incubated for 30 min at 27, and harvested through filtermate. A glass fiber filter presoaked in 0.5% PEI with ice cold 50 mM Tris-HCl buffer (pH 7.4) containing 0.9% NaCl.

pIC50: −log10 of the molar value. Where a name gives a salt, the structure may show the parent alone.

As a reminder, the pIC50 is the IC50 on a negative log10 scale, so that one unit is a factor of ten.

T3 sequence (P31645 whole entry): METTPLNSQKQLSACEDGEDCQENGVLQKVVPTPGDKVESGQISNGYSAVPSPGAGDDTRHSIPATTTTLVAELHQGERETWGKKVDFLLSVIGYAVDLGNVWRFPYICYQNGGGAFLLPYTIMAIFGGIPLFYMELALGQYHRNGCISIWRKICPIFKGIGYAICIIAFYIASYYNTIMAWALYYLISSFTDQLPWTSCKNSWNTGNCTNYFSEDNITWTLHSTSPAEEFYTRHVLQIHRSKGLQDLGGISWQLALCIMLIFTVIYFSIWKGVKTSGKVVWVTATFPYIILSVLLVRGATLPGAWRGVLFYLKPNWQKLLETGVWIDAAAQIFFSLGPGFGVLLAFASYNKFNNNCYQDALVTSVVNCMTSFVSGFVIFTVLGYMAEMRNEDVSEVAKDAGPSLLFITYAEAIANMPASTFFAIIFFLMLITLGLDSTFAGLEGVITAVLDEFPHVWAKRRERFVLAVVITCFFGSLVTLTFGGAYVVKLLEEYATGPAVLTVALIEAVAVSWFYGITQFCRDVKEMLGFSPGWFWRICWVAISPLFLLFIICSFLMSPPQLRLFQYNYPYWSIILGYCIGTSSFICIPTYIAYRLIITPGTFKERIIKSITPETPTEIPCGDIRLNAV
T1 sequence (P28223 whole entry): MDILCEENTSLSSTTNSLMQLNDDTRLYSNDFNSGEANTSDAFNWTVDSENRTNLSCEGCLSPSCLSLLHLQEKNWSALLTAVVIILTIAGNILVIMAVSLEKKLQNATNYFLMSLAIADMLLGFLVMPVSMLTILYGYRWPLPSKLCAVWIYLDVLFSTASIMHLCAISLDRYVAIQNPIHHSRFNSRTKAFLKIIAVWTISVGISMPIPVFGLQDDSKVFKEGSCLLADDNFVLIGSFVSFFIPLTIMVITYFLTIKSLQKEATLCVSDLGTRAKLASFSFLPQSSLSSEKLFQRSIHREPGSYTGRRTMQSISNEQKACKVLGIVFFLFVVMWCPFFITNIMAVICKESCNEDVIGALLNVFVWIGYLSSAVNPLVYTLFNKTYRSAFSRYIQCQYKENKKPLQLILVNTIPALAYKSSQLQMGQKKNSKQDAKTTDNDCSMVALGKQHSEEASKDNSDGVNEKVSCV

As for `CCn1c(-c2ccccc2)cc(C(=O)NCCCCN2CCN(c3cccc(C)c3C)CC2)c1C` [Example 42, N-(4-(4-(2,3-dimethylphenyl)piperazin-1-yl)butyl)-1-ethyl-2-methyl-5-phenyl-1H-pyrrole-3-carboxamide hydrochloride], the negative-log IC50 (pIC50) in assay [1] was 8.00; in assay [2], 7.77; in assay [3] it was 7.19.

`CCn1c(-c2ccccc2)cc(C(=O)NCCCCN2CCN(c3cccc(Cl)c3Cl)CC2)c1C` [Example 43, N-(4-(4-(2,3-dichlorophenyl)piperazin-1-yl)butyl)-1-ethyl-2-methyl-5-phenyl-1H-pyrrole-3-carboxamide hydrochloride]: the pIC50 is 7.55 in assay [1], 7.55 in assay [2] and 7.19 in assay [3].

Take `Cc1cccc(N2CCN(CCCNC(=O)c3cc(-c4ccc(Cl)cc4)[nH]c3C)CC2)c1C` [Example 44, 5-(4-chlorophenyl)-N-(3-(4-(2,3-dimethylphenyl)piperazin-1-yl)propyl)-2-methyl-1H-pyrrole-3-carboxamide hydrochloride]: the negative-log IC50 (pIC50) in assay [1] is 7.04; in assay [2] it was 6.72; in assay [3], 7.72.

Turning to `Cc1[nH]c(-c2ccc(Cl)cc2)cc1C(=O)NCCCN1CCN(c2cccc(Cl)c2Cl)CC1` [Example 45, 5-(4-chlorophenyl)-N-(3-(4-(2,3-dichlorophenyl)piperazin-1-yl)propyl)-2-methyl-1H-pyrrole-3-carboxamide hydrochloride], the pIC50 is 6.98 in assay [1], 6.97 in assay [2] and 7.25 in assay [3].

On to `Cc1cccc(N2CCN(CCCCNC(=O)c3cc(-c4ccc(Cl)cc4)[nH]c3C)CC2)c1C` [Example 46, 5-(4-chlorophenyl)-N-(4-(4-(2,3-dimethylphenyl)piperazin-1-yl)butyl)-2-methyl-1H-pyrrole-3-carboxamide hydrochloride], for which the pIC50 in assay [1] was 7.49; in assay [2], 7.06; in assay [3], 7.01.

For the compound `Cc1[nH]c(-c2ccc(Cl)cc2)cc1C(=O)NCCCCN1CCN(c2cccc(Cl)c2Cl)CC1` [Example 47, 5-(4-chlorophenyl)-N-(4-(4-(2,3-dichlorophenyl)piperazin-1-yl)butyl)-2-methyl-1H-pyrrole-3-carboxamide hydrochloride], the pIC50 in assay [1] was 7.25; in assay [2] it was 7.21; in assay [3] it was 6.91.

In the case of `CCn1c(-c2ccccc2)cc(C(=O)NCCN2CCN(c3cccc(Cl)c3Cl)CC2)c1C` [Example 49, N-(2-(4-(2,3-dichlorophenyl)piperazin-1-yl)ethyl)-1-ethyl-2-methyl-5-phenyl-1H-pyrrole-3-carboxamide hydrochloride], the pIC50 in assay [1] is 7.00; in assay [2], 7.02; in assay [3] it was 7.07.

Turning to `Cc1cccc(N2CCN(CCCNC(=O)c3cc(-c4ccc(Cl)cc4)n(C)c3C)CC2)c1C` [Example 61, 5-(4-chlorophenyl)-N-(3-(4-(2,3-dimethylphenyl)piperazin-1-yl)propyl)-1,2-dimethyl-1H-pyrrole-3-carboxamide hydrochloride], the negative logarithm of the IC50 (pIC50) in assay [1] was 6.67; in assay [2], 6.89; in assay [3] it was 6.89.

Turning to `Cc1c(C(=O)NCCCN2CCN(c3cccc(Cl)c3Cl)CC2)cc(-c2ccc(Cl)cc2)n1C` [Example 62, 5-(4-chlorophenyl)-N-(3-(4-(2,3-dichlorophenyl)piperazin-1-yl)propyl)-1,2-dimethyl-1H-pyrrole-3-carboxamide hydrochloride], the values for the pIC50 in assay [1], in assay [2] and in assay [3] were 6.63, 7.41 and 6.13, respectively.

For the compound `CCn1c(-c2ccc(Cl)cc2)cc(C(=O)NCCCN2CCN(c3cccc(C)c3C)CC2)c1C` [Example 63, 5-(4-chlorophenyl)-N-(3-(4-(2,3-dimethylphenyl)piperazin-1-yl)propyl)-1-ethyl-2-methyl-1H-pyrrole-3-carboxamide hydrochloride], the pIC50 is 6.82 in assay [1], 7.41 in assay [2] and 7.03 in assay [3].

In the case of `CCCn1c(-c2ccc(Cl)cc2)cc(C(=O)NCCCN2CCN(c3cccc(C)c3C)CC2)c1C` [Example 65, 5-(4-chlorophenyl)-N-(3-(4-(2,3-dimethylphenyl)piperazin-1-yl)propyl)-2-methyl-1-propyl-1H-pyrrole-3-carboxamide hydrochloride], the pIC50 in assay [1] was 6.72; in assay [2], 7.59; in assay [3], 6.88.

On to `CCCn1c(-c2ccc(Cl)cc2)cc(C(=O)NCCCN2CCN(c3cccc(Cl)c3Cl)CC2)c1C` [Example 66, 5-(4-chlorophenyl)-N-(3-(4-(2,3-dichlorophenyl)piperazin-1-yl)propyl)-2-methyl-1-propyl-1H-pyrrole-3-carboxamide hydrochloride], for which the results for the negative-log IC50 (pIC50) in assay [1], in assay [2] and in assay [3] were 6.48, 7.39 and 5.94, respectively.

As to `Cc1[nH]c(-c2ccc(Cl)cc2)cc1C(=O)NCCN1CCN(c2cccc(Cl)c2Cl)CC1` [Example 67, 5-(4-chlorophenyl)-N-(2-(4-(2,3-dichlorophenyl)piperazin-1-ypethyl)-2-methyl-1H-pyrrole-3-carboxamide hydrochloride], the negative-log IC50 (pIC50) in assay [1] is 7.00; in assay [2], 7.64; in assay [3], 6.63.

As for `Cc1c(C(=O)NCCN2CCN(c3cccc(Cl)c3Cl)CC2)cc(-c2ccc(Cl)cc2)n1C` [Example 68, 5-(4-chlorophenyl)-N-(2-(4-(2,3-dichlorophenyl)piperazin-1-yl)ethyl)-1,2-dimethyl-1H-pyrrole-3-carboxamide hydrochloride], the negative-log IC50 (pIC50) was 6.53 in assay [1], 7.62 in assay [2] and 6.75 in assay [3].

As for `CCn1c(-c2ccc(Cl)cc2)cc(C(=O)NCCN2CCN(c3cccc(Cl)c3Cl)CC2)c1C` [Example 69, 5-(4-chlorophenyl)-N-(2-(4-(2,3-dichlorophenyl)piperazin-1-ypethyl)-1-ethyl-2-methyl-1H-pyrrole-3-carboxamide hydrochloride], the negative logarithm of the IC50 (pIC50) is 6.39 in assay [1], 7.54 in assay [2] and 6.66 in assay [3].

As to `CCCCn1c(-c2ccccc2)cc(C(=O)NCCCN2CCN(c3cccc(Cl)c3Cl)CC2)c1C` [Example 71, 1-butyl-N-(3-(4-(2,3-dichlorophenyl)piperazin-1-yl)propyl)-2-methyl-5-phenyl-1H-pyrrole-3-carboxamide hydrochloride], the pIC50 in assay [1] was 6.73; in assay [2], 7.49; in assay [3], 6.19.

As for `CCCCCCn1c(-c2ccccc2)cc(C(=O)NCCCN2CCN(c3cccc(Cl)c3Cl)CC2)c1C` [Example 72, N-(3-(4-(2,3-dichlorophenyl)piperazin-1-yl)propyl)-1-hexyl-2-methyl-5-phenyl-1H-pyrrole-3-carboxamide hydrochloride], the pIC50 in assay [1] is 6.52; in assay [2], 7.17; in assay [3], 5.92.

Take `COc1ccc(-c2cc(C(=O)NCCCN3CCN(c4cccc(Cl)c4Cl)CC3)c(C)[nH]2)cc1` [Example 73, N-(3-(4-(2,3-dichlorophenyl)piperazin-1-yl)propyl)-5-(4-methoxyphenyl)-2-methyl-1H-pyrrole-3-carboxamide hydrochloride]: the pIC50 was 7.43 in assay [1], 6.70 in assay [2] and 6.69 in assay [3].

`COc1ccc(-c2cc(C(=O)NCCCN3CCN(c4cccc(Cl)c4Cl)CC3)c(C)n2C)cc1` [Example 74, N-(3-(4-(2,3-dichlorophenyl)piperazin-1-yl)propyl)-5-(4-methoxyphenyl)-1,2-dimethyl-1H-pyrrole-3-carboxamide hydrochloride]: the negative logarithm of the IC50 (pIC50) in assay [1] is 6.97; in assay [2], 7.00; in assay [3], 7.12.
